Numbered stars: 1 amine (or outer) side, 2 acyl side, 3 side chain; on linkers, the order of the positions; unused ones are H or OH. Bridge positions count the residues as written; N and C are the ends. Square brackets hold non-standard residues; d marks the D form. Peptide text beside a SMILES is read from it. I, II: the chains in the order shown. * marks the point of attachment. X1 = O=C(O)CN1CCN(CC(=O)O)CC(Cc2ccc(NC(=S)*)cc2)N(CC(=O)O)CC1; Pro(trans-4-F) = O=C(O)[C@@H]1C[C@@H](F)CN1; X2 = O=C(CCOCCOCCC(=O)[*:2])[*:1]
Legend:
Human Granzyme B = Human Granzyme B (Homo sapiens, UniProt P10144); test: Granzyme B biochemical inhibition assay (fluorescence); conditions: 8 nM granzyme B; values below 8 nM reported as <8 nM
Chain of Human Granzyme B (P10144 21-247): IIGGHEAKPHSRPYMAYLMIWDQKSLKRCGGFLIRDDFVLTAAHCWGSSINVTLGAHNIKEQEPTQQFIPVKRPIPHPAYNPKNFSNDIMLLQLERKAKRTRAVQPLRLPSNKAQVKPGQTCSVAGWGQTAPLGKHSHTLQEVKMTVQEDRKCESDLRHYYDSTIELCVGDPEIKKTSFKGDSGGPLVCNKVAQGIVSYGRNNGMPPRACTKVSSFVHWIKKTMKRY
Protocol: Compounds to be tested as inhibitors were manually prepared in a 2-fold serial dilutions in DMSO, spanning 200 uM to 0.39 uM in a Labcyte Echo qualified low dead volume 384-well plate. Then an ECHO acoustic liquid handler was used to dispense 125 nL of each compound from 384-well plate into a PerkinElmer Proxiplate-384 Plus F assay plate. For the positive control of inhibitor, (S)-3-((3S,6S)-3-((2S,3S)-2-acetamido-3-methylpentanamido)-4-oxo-1,2,3,4,6,7-hexahydroazepino[3,2,1-hi]indole-6-carboxamido)-4-oxobutanoic acid (see C. A. Willoughby et al./Bioorg. Med. Chem. Lett. 12 (2002) 2197-2200 2199) was used at 2 uM assay concentration. For no inhibition control, DMSO was used. Each compound was run in duplicate.
Once the compounds were dispensed in the plates, enzyme mix and substrate mix were prepared. Enzyme mix was prepared by preparing a mixture of 300 uL granzyme B (final concentration 8 nM) and 10.8 mL of assay buffer (from Sigma kit). Substrate mix was prepared by combining 500 uL substrate (from Sigma kit) and 3 mL of assay buffer (from Sigma kit). Enzyme mixture was loaded on BioRaptr and 9.25 uL were added to each well of the assay plate containing compounds. The plate was incubated at room temperature under a metal gasket cover for 30 minutes. Subsequently, 3.125 uL of substrate mix were added to each well using the BioRaptr, reaching a final assay volume of 12.5 uL, and the plate was monitored using a Pherastar FS by 1 read per minute for 30 minutes in fluorescence mode, excitation wavelength is 400 nm and emission wavelength is 510 nm.
The data analysis was performed first in excel, where the slopes of the measured fluorescence from each sample were determined using MARS software from BMG LABTECH. These rates were then multiplied by 10,000 for visualization purposes. The rates, multiplied by 10,000, were normalized to 0% and 100% activity based on the average values of the samples with either 2 uM inhibitor (S)-3-((3S,6S)-3-((2S,3S)-2-acetamido-3-methylpentanamido)-4-oxo-1,2,3,4,6,7-hexahydroazepino[3,2,1-hi]indole-6-carboxamido)-4-oxobutanoic acid, or no inhibitor respectively. All samples were then normalized against these values using the formula={100−[(sample−100% inhib)/0% inhib]}*100 to achieve a normalized percent inhibition. Normalized percent inhibition versus concentration inhibitor was then plotted in Graphpad Prism version 9.0.0 and a variable slope (four parameters) fit was calculated for each inhibitor.

[1] = molecular target: human Granzyme B (hGranzyme B) (Homo sapiens, UniProt P10144); test: Surface plasmon resonance (SPR) binding kinetics to hGranzyme B; conditions: 25° C., 1:1 binding model, KD=kd/ka; read-out: Granzyme B SPR Kd
Protocol: The kinetics of test peptide binding to human Granzyme B (hGranzyme B) was determined by SPR. All experiments were performed at 25° C. using the Biacore 8k+ instrument (Cytiva, Marlborough, MA). The Biacore 8k+ Insight Evaluation Software Version 3.0 was used to fit the data with a 1:1 binding model to determine the association rate constant ka (M^−1s^−1, where “M” ~equals molar and “s” ~equals seconds) and the dissociation rate constant kd (s^−1). These rate constants were used to calculate the equilibrium dissociation constant. KD (M)=kd/ka.
To measure the binding kinetics of peptides of interest, surfaces were prepared by a capture method to a Series S Streptavidin (SA) chip using a 1×HBS-EP+ running buffer (Cytiva). hGranzyme B was diluted to 10 μg/mL in IX HBS-EP+ and flowed over spot 2 of each flow cell on the chip at a flow rate of 10 ul/min for 20 s to achieve a level of capture of ~1100 RU. An unmodified spot 1 of each flow cell was used as a matrix binding control or reference surface. Binding kinetics were measured using single cycle kinetics at 25° C. by injecting 5 concentrations with 3-fold serial dilutions of test peptides from 0.01 μM to 1 μM. Compound dilutions were performed manually in a running buffer containing 1×HBS-EP+(Cytiva), and a final concentration of 2% DMSO. The interaction analyses over hGranzyme B, were performed using a 120 s association time and a 900 s dissociation time. All experiments were conducted at a flow rate of 50 μL/min with a data collection rate of 10 Hz.
Peptide dilution series included 2 zero concentration points (no compound) which were averaged and subtracted from the peptide concentration injection as DMSO control responses. Binding data acquired from the reference surface (matrix binding control) were subtracted from the binding data for hGranzyme B surface on the chip to determine specific binding. Next, the association phase data were solvent corrected to account for any signal fluctuation throughout the experiment due to subtle DMSO concentration differences. Corrected response data were analyzed using the Biacore 8k+ Evaluation Software Version 3.0 according to the manufacturer. SPR data for representative compounds of the disclosure are found in Table 8.

[2] = rhesus monkey, in vivo
Protocol: Healthy non-human primate: A 3 h dynamic PET/CT scan was performed in a healthy male rhesus monkey to determine whole body biodistribution and clearance properties in an additional species. Approximately 6 mCi of ^18F-labeled anti-granzyme-B peptide was intravenously injected in the animal. Attenuation correction was performed using low-dose CT scan. Regions of interests (ROI) were manually drawn over tissues of interest to determine mean standardized uptake value (SUVmean).

Structure (SMILES) | IC50 (Human Granzyme B) [nM] | other results
C[C@@H]1NC(=O)[C@H](CO)NC(=O)[C@H](CCC(N)=O)NC(=O)[C@H](CC(=O)O)NC(=O)[C@H](CCC(=O)O)NC(=O)[C@H](Cc2ccccc2)NC(=O)[C@H](CC(N)=O)NC(=O)[C@H](Cc2ccccc2)NC(=O)CSC[C@@H](C(=O)NCC(N)=O)NC(=O)[C@@H]2CCCN2C(=O)[C@H](CCC(N)=O)NC(=O)[C@H](Cc2c[nH]c3ccccc23)NC(=O)[C@H]([C@@H](C)O)NC(=O)[C@H](CC(=O)O)NC1=O [Compound 1a, *F.N.F.E.D.Q.S.A.D.T.W.Q.P.*C.G.NH2] ({CH2CO}-FNFEDQSADTWQPCG-NH2; thioether N-14) | < 8 | –
C[C@@H]1NC(=O)[C@H](CO)NC(=O)[C@H](CCC(N)=O)NC(=O)[C@H](CC(=O)O)NC(=O)[C@H](CCC(=O)O)NC(=O)[C@H](Cc2ccccc2)NC(=O)[C@H](CC(N)=O)NC(=O)[C@H](Cc2ccccc2)NC(=O)CSC[C@@H](C(=O)NCC(=O)NCC(=O)N[C@@H](CCCCNC(=S)Nc2ccc(CC3CN(CC(=O)O)CCN(CC(=O)O)CCN3CC(=O)O)cc2)C(N)=O)NC(=O)[C@@H]2CCCN2C(=O)[C@H](CCC(N)=O)NC(=O)[C@H](Cc2c[nH]c3ccccc23)NC(=O)[C@H]([C@@H](C)O)NC(=O)[C@H](CC(=O)O)NC1=O (stereo partly drawn) [Compound 2a, *F.N.F.E.D.Q.S.A.D.T.W.Q.P.*C.G.G.K(NOTA-1).NH2] ({CH2CO}-FNFEDQSADTWQPCGGK(X1)-NH2; thioether N-14) | < 8 | –
C[C@@H](O)[C@@H]1NC(=O)[C@H](CC(=O)O)NC(=O)[C@@H]2C[C@@H](F)CN2C(=O)[C@H](CO)NC(=O)[C@H](CCC(N)=O)NC(=O)[C@H](CC(=O)O)NC(=O)[C@H](CCC(=O)O)NC(=O)[C@H](Cc2ccccc2)NC(=O)[C@H](CC(N)=O)NC(=O)[C@H](Cc2ccccc2)NC(=O)CSC[C@@H](C(=O)NCC(=O)NCC(=O)N[C@@H](CCCCNC(=S)Nc2ccc(CC3CN(CC(=O)O)CCN(CC(=O)O)CCN3CC(=O)O)cc2)C(N)=O)NC(=O)[C@@H]2CCCN2C(=O)[C@H](CCC(N)=O)NC(=O)[C@H](Cc2c[nH]c3ccccc23)NC1=O (stereo partly drawn) [Compound 19a, *F.N.F.E.D.Q.S.Prot4F.D.T.W.Q.P.*C.G.G.K(^68Ga-NOTA-1).NH2, metal not drawn] | – | route of clearance [2]: primarily cleared through renal excretion; tissues of highest uptake [2]: highest uptake observed in urine/urinary bladder and kidney

Continued, in another order:

IC50 (Human Granzyme B) [nM] | Structure (SMILES) | other results
< 8 | C[C@@H](O)[C@@H]1NC(=O)[C@H](CC(=O)O)NC(=O)[C@@H]2C[C@@H](F)CN2C(=O)[C@H](CO)NC(=O)[C@H](CCC(N)=O)NC(=O)[C@H](CC(=O)O)NC(=O)[C@H](CCC(=O)O)NC(=O)[C@H](Cc2ccccc2)NC(=O)[C@H](CC(N)=O)NC(=O)[C@H](Cc2ccccc2)NC(=O)CSC[C@@H](C(=O)NCC(=O)NCC(=O)N[C@@H](CCCCNC(=S)Nc2ccc(CC3CN(CC(=O)O)CCN(CC(=O)O)CCN3CC(=O)O)cc2)C(N)=O)NC(=O)[C@@H]2CCCN2C(=O)[C@H](CCC(N)=O)NC(=O)[C@H](Cc2c[nH]c3ccccc23)NC1=O (single isomer, unassigned) [Compound 12a, *F.N.F.E.D.Q.S.Prot4F.D.T.W.Q.P.*C.G.G.K(NOTA-1).NH2] | –
< 8 | C[C@@H]1NC(=O)[C@H](CO)NC(=O)[C@H](CCC(N)=O)NC(=O)[C@H](CC(=O)O)NC(=O)[C@H](CCC(=O)O)NC(=O)[C@H](Cc2ccccc2)NC(=O)[C@H](CC(N)=O)NC(=O)[C@H](Cc2ccccc2)NC(=O)CSC[C@@H](C(=O)NCC(=O)NCC(=O)N[C@@H](CCCCNC(=O)CCOCCOCCC(=O)NCCCC[C@H](NC(=O)CNC(=O)CNC(=O)[C@@H]2CSCC(=O)N[C@@H](Cc3ccccc3)C(=O)N[C@@H](CC(N)=O)C(=O)N[C@@H](Cc3ccccc3)C(=O)N[C@@H](CCC(=O)O)C(=O)N[C@@H](CC(=O)O)C(=O)N[C@@H](CCC(N)=O)C(=O)N[C@@H](CO)C(=O)N[C@@H](C)C(=O)N[C@@H](CC(=O)O)C(=O)N[C@@H]([C@@H](C)O)C(=O)N[C@@H](Cc3c[nH]c4ccccc34)C(=O)N[C@@H](CCC(N)=O)C(=O)N3CCC[C@H]3C(=O)N2)C(N)=O)C(N)=O)NC(=O)[C@@H]2CCCN2C(=O)[C@H](CCC(N)=O)NC(=O)[C@H](Cc2c[nH]c3ccccc23)NC(=O)[C@H]([C@@H](C)O)NC(=O)[C@H](CC(=O)O)NC1=O [Compound 5a, *F.N.F.E.D.Q.S.A.D.T.W.Q.P.*C.G.G.K.NH2)-PEG2-(*F.N.F.E.D.Q.S.A.D.T.W.Q.P.*C.G.G.K.NH2)] (I: {CH2CO}-FNFEDQSADTWQPCGGK-NH2 / II: {CH2CO}-FNFEDQSADTWQPCGGK-NH2; linker I:17-II:17 via X2; thioether I:N-I:14, II:N-II:14) | Kd [1]: < 0.3 nM
< 8 | C[C@@H](O)[C@@H]1NC(=O)[C@H](CC(=O)O)NC(=O)[C@@H]2CCCN2C(=O)[C@H](CO)NC(=O)[C@H](CCC(N)=O)NC(=O)[C@H](CC(=O)O)NC(=O)[C@H](CCC(=O)O)NC(=O)[C@H](Cc2ccccc2)NC(=O)[C@H](CC(N)=O)NC(=O)[C@H](Cc2ccccc2)NC(=O)CSC[C@@H](C(=O)NCC(N)=O)NC(=O)[C@@H]2CCCN2C(=O)[C@H](CCC(N)=O)NC(=O)[C@H](Cc2c[nH]c3ccccc23)NC1=O [Compound 25a, *F.N.F.E.D.Q.S.P.D.T.W.Q.P.*C.G.NH2] ({CH2CO}-FNFEDQSPDTWQPCG-NH2; thioether N-14) | –
< 8 | C[C@@H](O)[C@@H]1NC(=O)[C@H](CC(=O)O)NC(=O)[C@@H]2C[C@@H](F)CN2C(=O)[C@H](CO)NC(=O)[C@H](CCC(N)=O)NC(=O)[C@H](CC(=O)O)NC(=O)[C@H](CCC(=O)O)NC(=O)[C@H](Cc2ccccc2)NC(=O)[C@H](CC(N)=O)NC(=O)[C@H](Cc2ccccc2)NC(=O)CSC[C@@H](C(=O)NCC(N)=O)NC(=O)[C@@H]2CCCN2C(=O)[C@H](CCC(N)=O)NC(=O)[C@H](Cc2c[nH]c3ccccc23)NC1=O [Compound 38a, *F.N.F.E.D.Q.S.Prot4F.D.T.W.Q.P.*C.G.NH2] ({CH2CO}-FNFEDQS[Pro(trans-4-F)]DTWQPCG-NH2; thioether N-14) | –

— patent publication US20260207798A1, “CYCLIC PEPTIDES AS PET IMAGING AGENTS OF GRANZYME B” (priority 2022, published 2026)
